Laboratory results from US10092574B2, “Inhibitors of polynucleotide repeat-associated RNA foci and uses thereof” (VALORISATION-RECHERCHE, LIMITED PARTNERSHIP, priority 2013, dated 2018).
Entries after “also recorded” stand apart in the source; their conditions may differ.

Tests used:
Assay type in all cases: cell-based, human
[1] = system: MBNL2, MBNL1, Sercal and TNNT2 pre-mRNAs; experiment: Splicing assays on the panel of MBNL2, MBNL1, Sercal and TNNT2 pre-mRNAs in DM1 myoblasts; conditions: 20 μM, 7 days (FIG. 11)
Description: Human myoblasts were obtained from the Myosix institute associated with the Association Frangaise contre les Myopathies (AFM). Five primary myoblast lines were obtained as controls, and one line from a DM1 patient with a 3.8 Kb CTG triplet amplification corresponding to approximately 1250 CTG repeats. The human myoblasts are cultivated in HAM-F10 media (SIGMA N6635) with 15% FBS, 1% chick embryo extract, and 390 ng/ml of dexamethasone. One day before adding compounds, 2×10^5 cells were plated in 100 mm plates (for CUGBP1 western blot or RT-PCR alternative splicing assay) or 2×10^4 cells/well are seeded in 12-well plates containing 12 mm round glass coverslips (for FISH to detect RNA foci). […]
For Western blots, CUGBP1 was detected with the 3B1-3D11 monoclonal antibody (mAb) (SIGMA C5112) and GAPDH was detected with the 6C5 mAb (Millipore MAB374). The enhanced chemiluminescence signal (ECL) was acquired and quantified with the ChemiDoc™ MP imaging system (Bio-Rad). […] The alternative splicing of the hnRNPA2/B1 transcript was detected with the primers 5′-[…]-3′ (SEQ ID NO:7) and 5′-[…]-3′ (SEQ ID NO:8). PCR was performed with Taq using standard conditions but the number of amplification cycles was optimized to be in the quantitative range for each gene. […]

Normal or DM1 myoblasts = experiment: Cytotoxicity assay (Hoescht 33342 / propidium iodide, High Content Screening microscope); conditions: for cellular toxicity: 7 days (FIG. 10)
Description: The cellular toxicity of compounds 15 and 32, and their analogs was also measured using a validated cytotoxicity assay. Normal or DM1 myoblasts were treated with 20 μM of compound or DMSO. The ratio of viable cells was measured with a High Content Screening microscope in live cells treated with Hoescht 33342 (labels all cells) and propidium iodide (labels dead cells). The total number of cells was counted and the number of dead cells was subtracted to obtain the number of viable cells, which is presented as a ratio (drug-treated versus DMSO-treated cells). The percentage of dead cells was also measured using propidium iodide.
The cellular toxicity of the compounds was also measured in a dose-response assay. In this assay, normal (M908) and patient (DM1) myoblasts were treated for 7 days with compound 32 or 196 at concentrations varying from 5 to 60 μM. Cell number and cell death was quantified by High Content Screening microscope, as specified above. […] Indeed, the ratio of viable cells at 20 μM of compound 15 is 0.22 (FIG. 10), while for compound 196, an analogue of compound 15, it is above 1 at the same concentration (FIG. 14C).

CUGBP1 = experiment: Western blot of CUGBP1 protein levels in myoblasts; conditions: DM1 myoblasts, 20 μM, 7 days (FIG. 7)
Description: Human myoblasts were obtained from the Myosix institute associated with the Association Frangaise contre les Myopathies (AFM). Five primary myoblast lines were obtained as controls, and one line from a DM1 patient with a 3.8 Kb CTG triplet amplification corresponding to approximately 1250 CTG repeats. The human myoblasts are cultivated in HAM-F10 media (SIGMA N6635) with 15% FBS, 1% chick embryo extract, and 390 ng/ml of dexamethasone. One day before adding compounds, 2×10^5 cells were plated in 100 mm plates (for CUGBP1 western blot or RT-PCR alternative splicing assay) or 2×10^4 cells/well are seeded in 12-well plates containing 12 mm round glass coverslips (for FISH to detect RNA foci). One day after plating, media is replaced with fresh media containing the compounds at the desired concentration in this manner: the media is put in a screw-cap tube and heated at 37° C. The 20 mM compound stock in 100% DMSO is pipetted directly into the media and the tube is mixed well by inversion and gentle vortexing, and immediately overlayed on the cells. Pure DMSO is used for the control cells. Final concentrations on myoblasts are never higher than 0.5%. This procedure is repeated twice during the seven days of treatment, the media is thus replaced with fresh media containing compound every 2-3 days. Cells are collected or fixed for FISH after one week.
For Western blots, CUGBP1 was detected with the 3B1-3D11 monoclonal antibody (mAb) (SIGMA C5112) and GAPDH was detected with the 6C5 mAb (Millipore MAB374). The enhanced chemiluminescence signal (ECL) was acquired and quantified with the ChemiDoc™ MP imaging system (Bio-Rad). For alternative splicing assays, total RNA was collected with Trizol™ (Invitrogen), and 1 μg was used for reverse transcription with random primers with the RevertAid™ H Minus M-MuL RT (Fermentas) according to manufacturer's instructions. For MBNL2, PCR amplification was performed with primers 5′-[…]-3′ (SEQ ID NO:1) and 5′-[…]-3′ (SEQ ID NO:2). SERCA1 was amplified with primers 5′-[…]-3′ (SEQ ID NO:3) and 5′-[…]-3′ (SEQ ID NO:4). For TNNT2 (cardiac Troponin T), PCR was carried out with primers 5′-[…]-3′ (SEQ ID NO:5) and 5′-[…]-3′ (SEQ ID NO:6). The alternative splicing of the hnRNPA2/B1 transcript was detected with the primers 5′-[…]-3′ (SEQ ID NO:7) and 5′-[…]-3′ (SEQ ID NO:8). PCR was performed with Taq using standard conditions but the number of amplification cycles was optimized to be in the quantitative range for each gene. The products of PCR amplification were resolved on 3.5% agarose gels containing Gelred™ (Biotium) and images were acquired and quantified with the ChemiDoc™ MP imaging system (Bio-Rad). […]

Q: `CCCN(CCC)S(=O)(=O)c1ccc(NC(=O)c2cnn(-c3ccccc3)c2C)cc1` [Compound 196, N-(4-(N,N-Dipropylsulfamoyl)phenyl)-5-methyl-1-phenyl-1H-pyrazole-4-carboxamide] was tested. Which “correction of mis-splicing of all the pre-mRNAs tested” value [1] did it give?
A: significantly corrects mis-splicing of all the pre-mRNAs tested

Q: What about the “ratio of viable cells (drug-treated versus DMSO-treated)” value (Normal or DM1 myoblasts; 20 μM, 7 days (FIG. 10, FIG. 14C)) of the same compound?
A: above 1

Q: And the “main phenotype at higher concentrations” value (Normal or DM1 myoblasts; normal (M908) and DM1 myoblasts, 7 days, 5 to 60 μM)?
A: cytostatic effect

Q: And the “cytotoxicity in dose-response assay” value (Normal or DM1 myoblasts; normal (M908) and DM1 myoblasts, 7 days, concentration of 20 μM and below (FIGS. 14A-D))?
A: little cytotoxicity

Q: Which cellular toxicity (Normal or DM1 myoblasts; 20 μM) does the source give for `CCC(C(=O)Nc1ccc(S(=O)(=O)NC23CC4CC(CC(C4)C2)C3)cc1)c1ccccc1` (stereo not shown) [Compound 31] here?
A: exhibits cellular toxicity; also recorded: some toxicity

Q: For `Cc1c(C(=O)N(Cc2ccccc2)Cc2cccs2)cnn1-c1ccc(Cl)cc1` [Compound 46], which cellular toxicity (Normal or DM1 myoblasts; 20 μM) is on record?
A: little toxicity

Q: Which “reduction of CUGBP1 levels” value (CUGBP1) does the source give for `CCCc1c(C(=O)N2CCC(c3ccccc3OC)CC2)cnn1-c1ccccc1` [Compound 43] here?
A: 45%
